# What was measured:
# [1] = system: human 5HT2A receptor compared with human 5HT2C receptor; test: Selectivity for 5HT2A over 5HT2C receptor (as measured by IC50 values); format: binding
# [2] = system: human mutated 5HT2A receptor, AP-3; test: Receptor-mediated inositol phosphate (IP3) accumulation, AP-3; format: cell-based
# Experimental: On day one, 1×10^7 293 cells per 150 mm plate were plated out. On day two, two reaction tubes were prepared (the proportions to follow for each tube are per plate): tube A was prepared by mixing 20 μg DNA (e.g., pCMV vector; pCMV vector AP-1 cDNA, etc.) in 1.2 ml serum free DMEM (Irvine Scientific, Irvine, Calif.); tube B was prepared by mixing 120 μl lipofectamine (Gibco BRL) in 1.2 ml serum free DMEM. Tubes A and B were then admixed by inversions (several times), followed by incubation at room temperature for 30-45 min. The admixture is referred to as the "transfection mixture". Plated 293 cells were washed with 1×PBS, followed by addition of 10 ml serum free DMEM. 2.4 ml of the transfection mixture was then added to the cells, followed by incubation for 4 hrs at 37° C./5% CO2. On day 3, cells were trypsinized and counted, followed by plating of 1×10^6 cells/well (poly D-lysine treated 12-well plates). Cells were permitted to adhere to the wells, followed by one wash with 1×PBS. Thereafter, 0.5 μCi ^3 H-inositol in 1 ml inositol-free DMEM was added per well. Protocol B.
# On day 4, the cells were washed with 0.5 ml PBS and then 0.45 ml of assay medium was added containing inositol-free/serum free media, 10 μM pargyline, 10 mM lithium chloride, or 0.4 ml of assay medium and 50 ul of 10× ketanserin (ket) to a final concentration of 10 μM. The cells were then incubated for 30 minutes at 37° C. Then the cells were washed with 0.5 ml PBS and 200 ul of fresh/ice cold stop solution (1M KOH; 18 mM Na-borate; 3.8 mM EDTA) was added/well. The solution was kept on ice for 5-10 minutes or until the cells were lysed and then neutralized by 200 μl of fresh/ice cold neutralization sol. (7.5% HCL). The lysate was then transferred into 1.5 ml microcentrifuge tubes and 1 ml of chloroform/methanol (1:2) was added/tube. The solution was vortexed for 15 seconds and the upper phase was applied to a Biorad AG1-X8 anion exchange resin (100-200 mesh). The resin was washed with water and 0.9 ml of the upper phase was loaded onto the column. The column was washed with 10 mls of 5 mM myo-inositol and 10 ml of 5 mM Na-borate/60 mM Na-formate. The inositol trisphosphates were eluted into scintillation vials containing 10 ml of scintillation cocktail with 2 ml of 0.1 M formic acid/1 M ammonium formate. The columns were regenerated by washing with 10 ml of 0.1 M formic acid/3M ammonium formate and rinsed twice with dd H2 O and stored at room temperature in water.
# Candidate compound identified in the assays of Examples 9a-9c were then evaluated for inositol phosphate accumulation, following the protocol of Example 5 ([…] expressing human mutated 5HT2A receptor, AP-3), modified as follows: tube A was prepared by mixing 16 μg DNA (e.g., pCMV vector; pCMV vector AP-1 cDNA, etc.) in 1.0 ml serum free DMEM (Irvine Scientific, Irvine, Calif.); tube B was prepared by mixing 60 μl lipofectamine (Gibco BRL) in 1.0 ml serum free DMEM. Tubes A and B were then admixed by inversions (several times), followed by incubation at room temperature for 30 min. The admixture is referred to as the "transfection mixture". Plated 293 cells were washed with 10 ml Serum Free DMEM, followed by addition of 11 ml Serum Free DMEM. 2.0 ml of the transfection mixture was then added to the cells, followed by incubation for 5 hrs at 37° C./5% CO2. On day 3, cells were trypsinized and counted, followed by plating of 1×10^6 cells/well (12-well plates). Cells were permitted to adhere to the wells for 8 hrs, followed by one wash with 1×PBS. Thereafter, 0.5 μCi ^3 H-inositol in 1 ml inositol-free DMEM was added per well.
# On day 4, the cells were washed with 1.5 ml PBS and then 0.9 ml of assay medium was added containing inositol-free/serum free media, 10 μM pargyline, 10 mM lithium chloride, for 5 min in 37° C./5% CO2 followed by 100 μl addition of candidate compound diluted in the same material. The cells were then incubated for 120 minutes at 37° C. […]
# [3] = format: in vivo, rat (male Sprague-Dawley)
# Experimental: FIG. 7 provides a graphic summary of the reversal of MK-801-induced hyperactivity using 116081 (7A) and clozapine (7B). […] 116081 produced a significant reversal of the effect of MK-801 at a dose of 25 μmol/kg (10 mg/kg). Results are presented as total activity counts over the 120 min of exposure to the locomotor activity apparatus after administration of MK-801. Data (mean±SEM) were analyzed by ANOVA followed by Dunnett's test (n=6-8/group).
# Because part of the symptomatology of schizophrenia may be related to altered glutamate transmission at the NMDA receptor, the reversal of MK-801-induced hyperlocomotor activity in rodents has been used routinely as an animal model for detecting potential antipsychotic activity (O'Neill et al., Pharmacology Biochem. Behav., 63: 237-243, 1999). Thus, this test was used to determine potential antipsychotic properties of 116081 in vivo.
# Motor activity was assessed using automated locomotor activity cages as described above (Example 11(A), supra.). Male Sprague-Dawley rats (250-350 g body weight) were administered test compounds (i.p.) and placed in the locomotor activity cages for 30 min of habituation. Following habituation,animals were administered MK-801 (0.5 μmol/kg=0.17 mg/kg, s.c.) and then immediately placed back into the locomotor activity cages, and activity was measured for 120 min. A reversal of MK-801-induced motor activity (as shown by a significant […] of ambulation) in rats is considered to be predictive of the ability of the test compound to reverse psychotic symptoms.
structure (smiles),measurement,setting,value
"Cn1cc(Br)c(-c2cccc(NC(=O)Nc3ccc(Cl)cc3)c2)n1 [Compound 116081, N-[3-(4-bromo-1-methylpyrazol-3-yl)phenyl][(4-chlorophenyl)amino]carboxamide]",selectivity preference for the 5HT2A receptor compared with the 5HT2C receptor,[1],100 fold
same,IP3 % of Control,"[2]; 10 μM test compound, triplicate, control without test compound",10%
same,profile in in vitro functional assays,[2]; in vitro functional assays,selective 5HT2A inverse agonist properties
same,"efficacy in reversing motor activity induced by MK-801, compared with clozapine",[3]; FIGS. 7A and 7B,equiefficacious to the atypical antipsychotic clozapine
same,attenuation of MK-801-induced hyperactivity (ambulations),"[3]; i.p., total activity counts over 120 min after MK-801",dose-dependently attenuated MK801-induced hyperactivity

# Source: patent US6150393A (priority 1999, dated 2000)
